# Key:
# Assay in all cases: relative viability (nuclei count vs DMSO), 5 days (fraction); higher = more cells survive
# [1] = compound: CCN1CCN(c2ccc(Nc3cc(N(C)C(=O)Nc4c(Cl)c(OC)cc(OC)c4Cl)ncn3)cc2)CC1 [BGJ398] + O=C(c1cc(Cc2n[nH]c(=O)c3ccccc23)ccc1F)N1CCN(C(=O)C2CC2)CC1 [Olaparib] (partner 8 µM)
# In short: (§1)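 Relative viability equals treated-well nuclei counts divided by vehicle-well nuclei counts. Counts came from 4× images of lung cancer cell lines grown in 1536-well plates for 5 days after pin-tool dosing on the day after seeding. Dosing used one drug alone or a fixed anchor-drug dose plus five library-drug doses (not always all listed) in √10 steps, and values are medians of duplicate plates.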
# [2] = compound: CCN1CCN(c2ccc(Nc3cc(N(C)C(=O)Nc4c(Cl)c(OC)cc(OC)c4Cl)ncn3)cc2)CC1 [BGJ398] + Cc1cc(Nc2cc(N3CCN(C)CC3)nc(Sc3ccc(NC(=O)C4CC4)cc3)n2)n[nH]1 [Tozasertib] (partner 0.1 µM)
# In short: as §1
# [3] = compound: C1=CC2=NC=CN=C2C=C1/C=C/3\C(=O)NC(=O)S3 + COc1cc2c(Oc3ccc(NC(=O)C4(C(=O)Nc5ccc(F)cc5)CC4)cc3F)ccnc2cc1OCCCN1CCOCC1 [Foretinib] (partner 0.25 µM)
# In short: as §1
# [4] = compound: C1=CC2=NC=CN=C2C=C1/C=C/3\C(=O)NC(=O)S3 + CS(=O)(=O)N1CCN(Cc2cc3nc(-c4cccc5[nH]ncc45)nc(N4CCOCC4)c3s2)CC1 [Pictilisib] (partner 1 µM)
# In short: as §1
Cell Line,relative viability ([1]; first compound 0.01 µM),relative viability ([1]; first compound 0.03162 µM),relative viability ([1]; first compound 0.1 µM),relative viability ([1]; first compound 0.3162 µM),relative viability ([1]; first compound 1 µM),relative viability ([2]; first compound 0.01 µM),relative viability ([2]; first compound 0.03162 µM),relative viability ([2]; first compound 0.1 µM),relative viability ([2]; first compound 0.3162 µM),relative viability ([2]; first compound 1 µM),relative viability ([3]; first compound 0.02 µM),relative viability ([3]; first compound 0.06325 µM),relative viability ([3]; first compound 0.2 µM),relative viability ([3]; first compound 0.6325 µM),relative viability ([3]; first compound 2 µM),relative viability ([4]; first compound 0.02 µM),relative viability ([4]; first compound 0.06325 µM),relative viability ([4]; first compound 0.2 µM),relative viability ([4]; first compound 0.6325 µM),relative viability ([4]; first compound 2 µM)
COR-L23,0.337,0.337,0.308,0.337,0.313,0.216,0.248,0.205,0.188,0.182,0.94,0.961,0.96,0.934,0.979,0.784,1.01,0.78,0.717,0.453
HCC-78,0.785,0.838,0.967,0.78,0.823,0.355,0.461,0.445,0.419,0.476,0.54,0.469,0.538,0.534,0.4,0.267,0.202,0.246,0.206,0.169
NCI-H727,0.707,0.629,0.717,0.653,0.641,0.574,0.751,0.816,0.585,0.605,0.954,0.852,1.04,0.853,0.588,0.432,0.394,0.367,0.328,0.198
NCI-H2087,0.46,0.744,0.574,0.609,0.613,0.219,0.255,0.24,0.26,0.277,1.12,0.974,0.992,0.975,0.931,0.77,1.11,0.913,0.798,0.995
BEN,1.09,1.19,1.18,0.991,0.861,0.587,0.488,0.543,0.513,0.527,0.787,0.869,0.693,0.666,0.473,0.54,0.622,0.613,0.496,0.556
LCLC-103H,0.756,0.787,0.726,0.717,0.596,0.429,0.445,0.424,0.487,0.341,0.864,0.711,0.813,0.653,0.648,0.61,0.768,0.706,0.539,0.531
EKVX,0.872,0.884,0.812,0.74,0.696,0.387,0.421,0.431,0.436,0.389,0.753,0.602,0.773,0.541,0.746,0.355,0.384,0.42,0.422,0.375
LXF-289,1.01,0.973,1.17,0.919,1.07,0.173,0.189,0.207,0.167,0.196,0.925,0.92,0.953,0.982,0.908,0.723,0.843,0.801,0.771,0.635
ABC-1,0.864,0.934,0.887,–,0.616,0.186,0.168,0.197,0.173,0.198,0.93,1.24,0.875,1.27,0.999,0.676,0.67,0.721,0.673,0.576
NCI-H650,0.358,0.413,0.377,0.375,0.365,0.681,0.809,0.802,0.785,0.75,1.01,1.09,1.04,1.08,0.711,0.816,0.829,0.917,0.868,0.783
NCI-H1650,0.81,0.838,0.786,0.826,0.811,0.498,–,0.464,0.289,0.356,1,0.956,1.07,1.13,1.08,0.562,0.531,0.594,0.553,0.656
NCI-H2085,0.759,0.773,0.711,0.693,0.796,0.961,0.877,0.74,0.732,0.669,0.966,1.09,0.902,1.03,0.882,0.417,0.394,0.533,0.455,0.486
NCI-H1793,0.828,0.721,1.02,0.824,0.739,0.337,0.351,0.3,0.3,0.287,0.633,0.601,0.721,0.634,0.642,0.344,0.395,0.328,0.294,0.263
LC-2-ad,0.766,0.759,0.694,0.677,0.749,0.451,0.489,0.486,0.474,0.374,0.889,0.951,0.995,0.917,0.699,0.465,0.533,0.478,0.411,0.335
COR-L 105,0.627,0.647,0.687,0.733,0.639,0.291,0.346,0.339,0.418,0.324,1,1.39,0.9,0.906,1.06,0.396,0.435,0.377,0.398,0.337
NCI-H1355,0.714,0.769,0.736,0.729,0.7,0.57,0.566,0.455,0.491,0.538,0.816,0.976,1.02,0.936,0.929,0.274,0.411,0.499,0.459,0.364
